Data on 6 molecules can be found in ChEMBL document CHEMBL1201862, “PubChem BioAssay data set” (2004).

Each structure is given as a SMILES string. Activity calls are given as the source filed them.

A short description of assay [1]: activation of miR-122 Renilla sensor silencing – cell-based, Huh7 psiCHECK-miR122, Renilla luciferase, cherry-picked, dose response (AID 651956).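 Also: huh7 hepatoma cells stably carrying a psiCHECK-2 miR-122 sensor plasmid; renilla luciferase signal reporting endogenous miR-122 activity after 48 h compound exposure.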 The format is functional.
The target in another assay is Paired box protein Pax-8 (Homo sapiens, UniProt Q06710). Description: PAX8 transcriptional activity inhibition in RMG-I – RMG-I cells, luciferase, cherry-pick, dose response (AID 687027).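 Also: luciferase reporter driven by Pax8 target thyroperoxidase promoter measured by SteadyGlo luminescence.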 Format: functional, cell-based.
Chain of Paired box protein Pax-8 (Q06710 whole entry): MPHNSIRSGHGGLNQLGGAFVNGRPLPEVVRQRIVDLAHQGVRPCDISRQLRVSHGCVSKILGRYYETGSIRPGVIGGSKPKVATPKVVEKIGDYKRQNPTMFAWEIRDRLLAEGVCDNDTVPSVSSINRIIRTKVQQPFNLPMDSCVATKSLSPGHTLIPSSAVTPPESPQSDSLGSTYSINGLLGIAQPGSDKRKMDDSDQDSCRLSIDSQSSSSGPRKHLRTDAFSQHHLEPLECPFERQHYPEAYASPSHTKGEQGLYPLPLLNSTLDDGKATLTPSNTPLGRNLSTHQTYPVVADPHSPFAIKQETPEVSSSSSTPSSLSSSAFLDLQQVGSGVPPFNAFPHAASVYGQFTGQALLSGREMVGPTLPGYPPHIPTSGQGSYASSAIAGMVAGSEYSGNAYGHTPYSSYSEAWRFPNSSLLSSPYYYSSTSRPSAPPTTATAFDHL
Assay [2] is described as follows: general mammalian cell viability loss – activator set, cherry-pick, cytotoxicity control for miR-122 modulator project, dose response (AID 720690).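 Also: HEK293T human cells scored for general mammalian cytotoxicity.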 Format: functional, cell-based.
Assay [3] is described as follows: inhibition of bursicon-driven LGR2 cAMP signaling – cell-based, HEK293, CRE-luciferase reporter, cherry pick, dose response (AID 743342). The format is functional.
A short description of assay [4]: T. cruzi growth inhibition in host cells, dose response, cell-based, plate reader, dry powder, set 2 (AID 652275). Format: functional.
A short description of assay [5]: general mammalian cell viability loss – inhibitor set, cherry-pick, set 2, cytotoxicity control for miR-122 modulator project, dose response (AID 720697). Format: functional, cell-based.
Assay [6] can be described thus: OVCAR-3 cell viability loss – plate reader, dry powder samples, PAX8 inhibitor project, dose response (AID 743044). Format: functional, cell-based.
Assay [7] in a line: OVCAR8 cell viability loss – plate reader, dry powder samples, PAX8 project, dose response (AID 743197). Format: functional, cell-based. Particulars: OVCAR-8.
The nature of assay [8]: IGROV1 cell killing – plate reader, dry powder samples, PAX8 inhibitor project, dose response (AID 743043). Format: functional, cell-based. Particulars: IGROV-1.
Assay [9] can be described thus: CMV-driven luciferase expression suppression in HEK293 – cell-based, luminescence, dry powder, counter-screen for Pax8 inhibitor project, dose response (AID 743020). Format: functional.
For assay [10], the target named is Protein disulfide-isomerase (Homo sapiens, UniProt P07237). Description: inhibition of PDI-mediated insulin reduction – biochemical, turbidity, dry powder samples, set 2, confirmation (AID 652146).
Chain of Protein disulfide-isomerase (P07237 whole entry): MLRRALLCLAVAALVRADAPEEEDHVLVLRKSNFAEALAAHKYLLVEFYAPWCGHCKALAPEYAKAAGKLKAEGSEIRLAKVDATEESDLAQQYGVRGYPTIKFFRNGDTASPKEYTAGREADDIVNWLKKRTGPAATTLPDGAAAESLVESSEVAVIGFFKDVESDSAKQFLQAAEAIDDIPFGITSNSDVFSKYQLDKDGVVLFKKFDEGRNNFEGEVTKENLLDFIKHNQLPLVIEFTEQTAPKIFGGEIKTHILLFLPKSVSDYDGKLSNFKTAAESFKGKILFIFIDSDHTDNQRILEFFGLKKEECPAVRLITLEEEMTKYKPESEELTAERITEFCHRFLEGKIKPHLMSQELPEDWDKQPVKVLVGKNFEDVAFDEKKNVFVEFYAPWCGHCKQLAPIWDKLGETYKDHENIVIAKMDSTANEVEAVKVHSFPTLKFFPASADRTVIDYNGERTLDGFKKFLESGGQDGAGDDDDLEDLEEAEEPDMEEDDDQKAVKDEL
Assay [11] is described as follows: loss of viability in HeLa cells – cell-based, ATP luminescence, dry powder, cytotoxicity control, dose response (AID 652117). Format: functional.

Regarding `CNC[C@@H]1Oc2cc(C#CC3CCCCC3)ccc2S(=O)(=O)N([C@@H](C)CO)C[C@@H]1C`, the AC50 in assay [1] was 1.39 µM (active); on Paired box protein Pax-8, 25.3 µM (active); in assay [2], 19.4 µM (active).
With `C[C@H]1CCCCO[C@H](CN(C)C(=O)Nc2cccc3ccccc23)[C@@H](C)CN([C@@H](C)CO)C(=O)c2cc(NS(=O)(=O)c3cn(C)cn3)ccc2O1`, in assay [3], the AC50 was 47 µM (active).
As to `CC(C)N1CC2(CN(Cc3ccccc3Cl)C2)Oc2c(NC(=O)c3ccncc3)cccc2C1=O`, in assay [4], the AC50 was 0.463 µM (active).
On to `CN1C(=O)c2cc(NC(=O)c3cccs3)ccc2OC[C@H]2O[C@@H](CC(=O)N3CCCCC3)CC[C@H]21`, for which the AC50 in assay [5] was 9.9 µM (active).
For `C[C@H]1CCCCO[C@H](CN(C)C(=O)c2ccccc2)[C@@H](C)CN([C@@H](C)CO)C(=O)c2cc(NC(=O)Nc3ccc(C(F)(F)F)cc3)ccc2O1`, the AC50 in assay [6] was 29.5 µM (active); in [7] it was 47.8 µM (active); in assay [8], 37.6 µM (active); in assay [9] it was 30.1 µM (active); on Paired box protein Pax-8 it was 9.48 µM (active).
`CCOC(=O)C1(CCOc2ccccc2)CCN(Cc2cccc(Cl)c2)CC1`: the AC50 in assay [10] is > 30 µM (inactive); in assay [11], 32.3 µM (active).
